Data taken from patent US20060172964A1, “Methods for reducing amyloid beta levels” (priority 2005, published 2006).

Tests used:
Type in all cases: cell-based, human
[1] = tested on: APP-FL, APP-C99 and APP-C83; assay: Western blot analysis of APP processing in H4-APP-FL cells; settings: for protein levels of APP-FL / increase in the ratio of APP-C99 to APP-FL / increase in the ratio of APP-C83 to APP-FL: siRNA 48 hours, DAPT 250 nM
Method: (§1) We employed naïve H4 human neuroglioma (H4) cells and H4 cells stably-transfected to express either the APP-FL, or APP-C99. Peptide APP-C99 is the product of β-secretase, which, therefore, contains α- and γ-, but not β-cleavage sites. This cell line provides a valid system to assess whether any effects on APP processing is dependent on γ-secretase-mediated APP processing and independent of β-secretase-mediated APP processing. All cell lines were cultured in DMEM (high glucose) containing 9% heat-inactivated fetal calf serum, 100 units/ml penicillin, 100 μg/ml streptomycin, and 2 mM L-glutamine. Stably transfected H4 cells were additionally supplemented with 200 μg/ml G418.
Small interfering RNA (siRNA) duplexes were designed and obtained from Dharmacon Research, Inc. (Lafayette, CO 80026) against human APBA1, the gene encoding X11α (5′-GGATGCTCAGCTGATTGCA-3′; SEQ ID NO:2), APBA2, the gene encoding X11β (5′-GGTGAAGCTCAACATTGTC-3′; SEQ ID NO:3). Scrambled siRNA (5′-[…]-3α; SEQ ID NO:4) (29) was used as the control siRNA. siRNAs were transfected into cells by using electroporation (AMAXA, Gaithersburg, Md.). We mixed 1 million cells, 100 μl AMAXA electroporation transfection solution and 10 μl 20 μM siRNA together, then we employed C-9 program in the AMAXA electroporation device for the cell transfection. The transfected cells then were placed in one of the six-well plate containing 1.5 ml cell culture media. The cells were harvested 48 hours after siRNA treatments. DAPT (250 nM, 18 hours treatment time), a γ-secretase inhibitor, was employed in the experiments as a positive control.
(§2) Cell pellets were detergent-extracted on ice using immunoprecipitation buffer (10 mM Tris-HCl, pH 7.4, 150 mM NaCl, 2 mM EDTA, 0.5% Nonidet P-40) plus protease inhibitors (1 μg/ml aprotinin, 1 μg/ml leupeptin, 1 μg/ml pepstatin A). The lysates were collected, centrifuged at 12,000 rpm for 10 min, and quantified for total proteins by the BCA protein assay kit (Pierce, Rockford, Ill.).
Western blot analysis was performed as described by Xie et al. (30). Briefly, 40 μg of total protein of each sample was subjected to SDS-polyacrylamide gel electrophoresis using 4-20% gradient Tris/glycine gels under reducing conditions (Invitrogen, Carlsbad, Calif.). Next, proteins were transferred to a polyvinylidene difluoride membrane (Bio-Rad, Hercules, Calif.) using a semi-dry electrotransfer system (Amersham Biosciences, San Francisco, Calif.). Nonspecific proteins were blocked using 5% non-fat dry milk in TBST for 1.5 h. Blots were then incubated with a primary antibody, followed by a secondary antibody (horseradish peroxidase-conjugated anti-rabbit antibody 1:10,000; Pierce, Rockford, Ill.). Blots were washed with 1× TBST for 30 min between steps. Antibody H-265 (1:200, Santa Cruz Biotechnology, Santa Cruz, Calif.) was used to recognize X11α (105 kDa), antibody N-20 (1:100, Santa Cruz Biotechnology, Santa Cruz, Calif.) was used to detect X11β (135 kDa). Antibody A8717 (1:1,000, Sigma, St. Louis, Mo.) was used to visualize APP-FL (110 kDa), […] in the Western blot analysis. The intensity of signals was analyzed using an image program (NIH Image 1.62). We quantified the Western blots as follows. We used the levels of β-actin to normalize the levels of X11α, X11β, APP-FL and APP-CTF (i.e., determining the ratio of X11α amount to β-actin amount) to control for loading differences in total protein amounts. We present the changes in the protein levels of X11α, X11β, APP-FL, APP-C99 and APP-C83 in the cells treated with APBA1 or APBA2 siRNA as the percentage of those in the cells treated with control siRNA.
We next assessed the effects of RNAi-mediated silencing of APBA1 on APP processing in H4-APP-FL cells by measuring protein levels of APP-FL, APP-C99 and APP-C83 following APBA1 siRNA treatment. […]

Aβ40 [2] = assay: Sandwich ELISA of secreted Aβ in conditioned media of H4-APP-FL cells
Method: as §1
Small interfering RNA (siRNA) duplexes were designed and obtained from Dharmacon Research, Inc. (Lafayette, CO 80026) against human APBA1, the gene encoding X11α (5′-GGATGCTCAGCTGATTGCA-3′; SEQ ID NO:2), APBA2, the gene encoding X11β (5′-GGTGAAGCTCAACATTGTC-3′; SEQ ID NO:3). Scrambled siRNA (5′-[…]-3α; SEQ ID NO:4) (29) was used as the control siRNA. siRNAs were transfected into cells by using electroporation (AMAXA, Gaithersburg, Md.). […]
(§3) Following the treatment with saline, electroporation, control siRNA, APBA1 siRNA or APBA2 siRNA, conditioned media was collected, and secreted Aβ was measured by a Sandwich ELISA assay as described by Xie et al. (30). […] Plates were then developed with TMB reagent and well absorbance measured at 450 nm. Aβ levels in test samples were determined by comparison with signal from unconditioned media spiked with known quantities of Aβ40 and Aβ42.
Next, we measured Aβ levels in the conditioned media, 48 hours after treatment with control siRNA, APBA1 siRNA or γ-secretase inhibitor DAPT. Since Aβ42 was too low to be detected in many samples, we only present the changes in Aβ40 production from these experiments.
Next, we measured Aβ levels in the conditioned media 48 hours following treatments with control siRNA, APBA2 siRNA or γ-secretase inhibitor DAPT.

[3] = tested on: APP-FL, APP-C99 and APP-C83; assay: Western blot analysis of APP processing in H4-APP-C99 cells; settings: data not shown
Method: as §1, with “G418. […]” for “G418.”
as §2
Western blot analysis was performed as described by Xie et al. (30). […] The intensity of signals was analyzed using an image program (NIH Image 1.62). We quantified the Western blots as follows. […]
We next assessed the effects of RNAi-mediated silencing of APBA1 on processing of APP-C99. […]

Aβ40 [4] = assay: Sandwich ELISA of secreted Aβ in conditioned media of H4-APP-C99 cells; settings: data not shown
Method: as §1, with “G418. […]” for “G418.”
as §3
We next measured Aβ levels in the conditioned media 48 hours after treatment with either control siRNA or APBA1 siRNA in the H4-APP-C99 cells. […]

Row | Compound | protein levels of APP-FL ([1]; APBA1 experiment (FIG. 1A), vs control siRNA) | protein levels of APP-FL ([1]; APBA2 experiment (FIG. 2A), vs control siRNA) | increase in the ratio of APP-C99 to APP-FL ([1]; APBA2 experiment, FIG. 2C, vs control treatment) [%] | increase in the ratio of APP-C83 to APP-FL ([1]; APBA2 experiment, FIG. 2D, vs control treatment) [%] | increase in the ratio of APP-C99 to APP-FL ([1]; FIG. 1C, vs control siRNA, normalized to β-actin) [%] | increase in the ratio of APP-C83 to APP-FL ([1]; FIG. 1D, vs control siRNA, normalized to β-actin) [%] | Aβ levels (Aβ40) in conditioned media (Aβ40 [2]; FIG. 1E, 48 hours after treatment, control siRNA treatment 116 pg/ml) [pg/mL] | Aβ production (Aβ40) in conditioned media (Aβ40 [2]; FIG. 2E, 48 hours following treatment, control siRNA 109 pg/ml) [pg/mL] | effect on APP processing as compared to saline treatment ([1]; data not shown) | effect on Aβ levels as compared to saline treatment (Aβ40 [2]; data not shown) | effect on APP processing as compared to saline treatment [3] | effect on Aβ levels as compared to saline treatment (Aβ40 [4])
1 | C[C@H](NC(=O)Cc1cc(F)cc(F)c1)C(=O)N[C@H](C(=O)OC(C)(C)C)c1ccccc1 [DAPT] | no significant differences | no significant difference | 270 | 245 | 310 | 250 | 70 | 48 | – | – | – | –
2 | control siRNA: Scrambled siRNA (5′-AAATGTGTGTACGTCTCCTCC-3; SEQ ID NO:4) used as the control siRNA (listed as DNA, chemistry not given here) | – | – | – | – | – | – | – | – | did not affect APP processing or alter Aβ levels | did not affect APP processing or alter Aβ levels | did not affect APP processing or alter Aβ levels | did not affect APP processing or alter Aβ levels
